The subject of this experiment is ATF4 luciferase reporter (human full-length ATF4 5'-UTR fused to firefly luciferase) in HEK293T cells. Description: ATF4-Luc assay (in vitro model of VWMD): HEK293T cells carrying ATF4 luciferase reporter, tunicamycin-treated. The experiment is classed as cell-based. The settings on record: Homo sapiens, HEK-293T, 1 μg/mL tunicamycin, 7 hours, One Glo luminescence. The method, then: In order to test exemplary compounds of the invention in a cellular context, a stable VWMD cell line was first constructed. The ATF4 reporter was prepared by fusing the human full-length ATF4 5′-UTR (NCBI Accession No. BC022088.2) in front of the firefly luciferase (FLuc) coding sequence lacking the initiator methionine as described in Sidrauski et al (eLife 2013). The construct was used to produce recombinant retroviruses using standard methods and the resulting viral supernatant was used to transduce HEK293T cells, which were then subsequently selected with puromycin to generate a stable cell line.
HEK293T cells carrying the ATF4 luciferase reporter were plated on polylysine coated 384-well plates (Greiner Bio-one) at 30,000 cells per well. Cells were treated the next day with 1 μg/mL tunicamycin and 200 nM of a compound of Formula (I) for 7 hours. Luminescence was measured using One Glo (Promega) as specified by the manufacturer. Cells were maintained in DMEM with L-glutamine supplemented with 10% heat-inactivated FBS (Gibco) and Antibiotic-Antimycotic solution (Gibco).
Table 2 below summarizes the EC50 data obtained using the ATF4-Luc assay for exemplary compounds of the invention.
On the technique in general: Reporter assays use an easily measured gene product as a stand-in for the process of interest.
With `O=C(COc1ccc(Cl)c(F)c1)NC12CC(NC(=O)[C@@H]3C[C@@H](N[C@H]4C[C@@H](O)C4)c4cc(Cl)ccc4O3)(C1)C2` [Compound 316, (2S,4R)-6-chloro-N-{3-[2-(4-chloro-3-fluorophenoxy)acetamido]bicyclo[1.1.1]pentan-1-yl}-4-{[(1s,3S)-3-hydroxycyclobutyl]amino}-3,4-dihydro-2H-1-benzopyran-2-carboxamide], the EC50 (as a rule, the midpoint of the concentration-response curve) is 50 to 250 nM.

Consider `O=C(COc1ccc(Cl)c(F)c1)NC12CC(NC(=O)c3cc(=O)c4ccc(Cl)cc4o3)(C1)C2` [Compound 235, 7-chloro-N-{3-[2-(4-chloro-3-fluorophenoxy)acetamido]bicyclo[1.1.1]pentan-1-yl}-4-oxo-4H-1-benzopyran-2-carboxamide], for which the EC50 lay within 10 to 50 nM. Then `COc1ccc2oc(C(=O)NC34CC(NC(=O)COc5ccc(Cl)c(F)c5)(C3)C4)cc(=O)c2c1` [Compound 287, N-{3-[2-(4-chloro-3-fluorophenoxy)acetamido]bicyclo[1.1.1]pentan-1-yl}-6-methoxy-4-oxo-4H-1-benzopyran-2-carboxamide], with 50 to 250 nM. Regarding `O=C(COc1ccc(Cl)c(F)c1)NC12CC(NC(=O)c3cc(=O)c4cccc(Cl)c4o3)(C1)C2` [Compound 294, 8-chloro-N-{3-[2-(4-chloro-3-fluorophenoxy)acetamido]bicyclo[1.1.1]pentan-1-yl}-4-oxo-4H-1-benzopyran-2-carboxamide], the EC50 was 500 to 2000 nM. The figure for `O=C(NC12CCC(NC(=O)C3CC(=O)c4cc(Cl)ccc4O3)(C1)C2)c1ccc(OC(F)(F)F)cn1` (stereo not shown) [Compound 311, N-{4-[(6-chloro-4-oxo-3,4-dihydro-2H-1-benzopyran-2-carbonyl)amino]bicyclo[2.1.1]hexan-1-yl}-5-(trifluoromethoxy)pyridine-2-carboxamide] is 50 to 250 nM; for `O=C(NC12CC(NC(=O)C3CC(=O)c4cc(Cl)ccc4O3)(C1)C2)c1cnc(C(F)F)cn1` (stereo not shown) [Compound 217, N-{3-[(6-chloro-4-oxo-3,4-dihydro-2H-1-benzopyran-2-carbonyl)amino]bicyclo[1.1.1]pentan-1-yl}-5-(difluoromethyl)pyrazine-2-carboxamide] it is 50 to 250 nM. The figure for `CS(=O)(=O)N[C@@H]1C[C@@H](C(=O)NC23CC(NC(=O)COc4ccc(Cl)c(F)c4)(C2)C3)Oc2ccc(Cl)cc21` [Compound 245, (2S,4R)-6-chloro-N-{3-[2-(4-chloro-3-fluorophenoxy)acetamido]bicyclo[1.1.1]pentan-1-yl}-4-[(methanesulfonyl)amino]-3,4-dihydro-2H-1-benzopyran-2-carboxamide] is below 10 nM. Then `O=C(COc1ccc(Cl)c(F)c1)NC12CC(NC(=O)[C@@H]3C[C@H](O)c4cc(Cl)ccc4O3)(C1)C2` (racemic) [Compound 190, rac-(2R,4R)-6-chloro-N-{3-[2-(4-chloro-3-fluorophenoxy)acetamido]bicyclo[1.1.1]pentan-1-yl}-4-hydroxy-3,4-dihydro-2H-1-benzopyran-2-carboxamide], with below 10 nM; and `O=C(COc1ccc(C(F)(F)F)nc1)NC12CC(NC(=O)[C@H]3C[C@@H](O)c4cc(Cl)ccc4O3)(C1)C2` [Compound 226, (2R,4R)-6-chloro-4-hydroxy-N-[3-(2-{[6-(trifluoromethyl)pyridin-3-yl]oxy}acetamido)bicyclo[1.1.1]pentan-1-yl]-3,4-dihydro-2H-1-benzopyran-2-carboxamide], with below 10 nM; and `O=C(COc1ccc(Cl)c(F)c1)NC12CC(NC(=O)c3cc(=O)c4ccc(O)cc4o3)(C1)C2` [Compound 295, N-{3-[2-(4-chloro-3-fluorophenoxy)acetamido]bicyclo[1.1.1]pentan-1-yl}-7-hydroxy-4-oxo-4H-1-benzopyran-2-carboxamide], with above 2000 nM. As for `O=C(COc1ccc(Cl)c(F)c1)NC12CC(NC(=O)C3CC(=O)c4cc(F)ccc4O3)(C1)C2` (stereo not shown) [Compound 332, N-{3-[2-(4-chloro-3-fluorophenoxy)acetamido]bicyclo[1.1.1]pentan-1-yl}-6-fluoro-4-oxo-3,4-dihydro-2H-1-benzopyran-2-carboxamide], the EC50 is below 10 nM. The figure for `O=C(COc1ccc(Cl)c(F)c1)NC12CCC(NC(=O)[C@H]3CC(=O)c4cc(Cl)ccc4O3)(C1)C2` [Compound 255, (2R)-6-chloro-N-{4-[2-(4-chloro-3-fluorophenoxy)acetamido]bicyclo[2.1.1]hexan-1-yl}-4-oxo-3,4-dihydro-2H-1-benzopyran-2-carboxamide] is below 10 nM.

`CC1(C(=O)NC23CC(NC(=O)COc4ccc(Cl)c(F)c4)(C2)C3)CCc2cc(Cl)ccc2O1` (stereo not shown) [Compound 240, 6-chloro-N-{3-[2-(4-chloro-3-fluorophenoxy)acetamido]bicyclo[1.1.1]pentan-1-yl}-2-methyl-3,4-dihydro-2H-1-benzopyran-2-carboxamide]: the EC50 lay within 10 to 50 nM. Turning to `O=C(NC12CC(NC(=O)[C@H]3C[C@@H](O)c4cc(Cl)ccc4O3)(C1)C2)c1ccc(Cl)c(F)c1` [Compound 378, (2R,4R)-6-chloro-N-[3-(4-chloro-3-fluorobenzamido)bicyclo[1.1.1]pentan-1-yl]-4-hydroxy-3,4-dihydro-2H-1-benzopyran-2-carboxamide], the EC50 was in the range of 50 to 250 nM. Take `O=C(COc1ccc(Cl)c(F)c1)NC12CC(NC(=O)C3=CC(O)c4cc(Cl)ccc4O3)(C1)C2` (stereo not shown) [Compound 315, 6-chloro-N-{3-[2-(4-chloro-3-fluorophenoxy)acetamido]bicyclo[1.1.1]pentan-1-yl}-4-hydroxy-4H-1-benzopyran-2-carboxamide]: the EC50 is below 10 nM. The figure for `O=C(COc1ccc(Cl)c(Cl)c1)NC12CC(NC(=O)[C@@H]3C[C@H](O)c4cc(F)c(F)cc4O3)(C1)C2` [Compound 208, (2S,4S)—N-{3-[2-(3,4-dichlorophenoxy)acetamido]bicyclo[1.1.1]pentan-1-yl}-6,7-difluoro-4-hydroxy-3,4-dihydro-2H-1-benzopyran-2-carboxamide] is below 10 nM. The figure for `NC1CC(C(=O)NC23CC(NC(=O)COc4ccc(Cl)c(F)c4)(C2)C3)Oc2ccc(Cl)cc21` (stereo not shown) [Compound 305, 4-amino-6-chloro-N-{3-[2-(4-chloro-3-fluorophenoxy)acetamido]bicyclo[1.1.1]pentan-1-yl}-3,4-dihydro-2H-1-benzopyran-2-carboxamide] is below 10 nM; for `O=C(COc1ccc(Cl)c(F)c1)NC12CC(NC(=O)c3cc(=O)c4ccc(C(F)(F)F)cc4o3)(C1)C2` [Compound 230, N-{3-[2-(4-chloro-3-fluorophenoxy)acetamido]bicyclo[1.1.1]pentan-1-yl}-4-oxo-7-(trifluoromethyl)-4H-1-benzopyran-2-carboxamide] it is below 10 nM. The figure for `Cc1cc2c(cc1F)[C@@H](O)C[C@@H](C(=O)NC13CC(NC(=O)COc4ccc(Cl)c(F)c4)(C1)C3)O2` [Compound 242, (2S,4S)—N-{3-[2-(4-chloro-3-fluorophenoxy)acetamido]bicyclo[1.1.1]pentan-1-yl}-6-fluoro-4-hydroxy-7-methyl-3,4-dihydro-2H-1-benzopyran-2-carboxamide] is below 10 nM; for `O=C(COc1ccc(Cl)c(F)c1)NC12CC(NC(=O)[C@@H]3C[C@@H](NCC(F)(F)F)c4cc(Cl)ccc4O3)(C1)C2` [Compound 323, (2S,4R)-6-chloro-N-{3-[2-(4-chloro-3-fluorophenoxy)acetamido]bicyclo[1.1.1]pentan-1-yl}-4-[(2,2,2-trifluoroethyl)amino]-3,4-dihydro-2H-1-benzopyran-2-carboxamide] it is 50 to 250 nM; for `O=C(COc1ccc(Cl)c(F)c1)NC12CC(NC(=O)c3cc(=O)c4ccc(OC(F)F)cc4o3)(C1)C2` [Compound 286, N-{3-[2-(4-chloro-3-fluorophenoxy)acetamido]bicyclo[1.1.1]pentan-1-yl}-7-(difluoromethoxy)-4-oxo-4H-1-benzopyran-2-carboxamide] it is 50 to 250 nM.

Consider `O=C(COc1ccc(Cl)c(F)c1)NC12CC(NC(=O)C3CC(NCC(F)(F)F)c4cc(Cl)ccc4O3)(C1)C2` (stereo not shown) [Compound 336, 6-chloro-N-{3-[2-(4-chloro-3-fluorophenoxy)acetamido]bicyclo[1.1.1]pentan-1-yl}-4-[(2,2,2-trifluoroethyl)amino]-3,4-dihydro-2H-1-benzopyran-2-carboxamide], for which the EC50 was 250 to 500 nM. As for `CN1CC(C(=O)NC23CCC(NC(=O)COc4ccc(Cl)c(F)c4)(CC2)[C@@H](O)C3)Oc2ccc(Cl)cc21` (stereo partly drawn) [Compound 107, 6-chloro-N-{(3S)-4-[2-(4-chloro-3-fluorophenoxy)acetamido]-3-hydroxybicyclo[2.2.2]octan-1-yl}-4-methyl-3,4-dihydro-2H-1,4-benzoxazine-2-carboxamide], the EC50 was below 10 nM. Then `O=C(COc1ccc(Cl)c(F)c1)NC12CCC(NC(=O)C3CC(O)c4cc(Cl)ccc4O3)(CC1)CC2` (stereo not shown) [Compound 337, 6-chloro-N-{4-[2-(4-chloro-3-fluorophenoxy)acetamido]bicyclo[2.2.2]octan-1-yl}-4-hydroxy-3,4-dihydro-2H-1-benzopyran-2-carboxamide], with below 10 nM; and `O=C(COc1ccc(Cl)c(F)c1)NC12CC(NC(=O)C3CC(NC4COC4)c4cc(Cl)ccc4O3)(C1)C2` (stereo not shown) [Compound 349, 6-chloro-N-{3-[2-(4-chloro-3-fluorophenoxy)acetamido]bicyclo[1.1.1]pentan-1-yl}-4-[(oxetan-3-yl)amino]-3,4-dihydro-2H-1-benzopyran-2-carboxamide], with 10 to 50 nM.

These data come from patent US20240018133A1, “MODULATORS OF THE INTEGRATED STRESS PATHWAY” (Calico Life Sciences LLC, priority 2019, published 2024).
